From ChEMBL document CHEMBL5230091, “Histone deacetylase inhibitor based prodrugs” (Eur J Med Chem, 2020)
In brackets after ≈: the same amount, converted by molar mass.

Legend:
[1] = Aqueous solubility of compound by HPLC method; format: physicochemical; conditions: water (aqueous)
U-251 = experiment: Antiproliferative activity against human U-251MG cells assessed as cell growth inhibition; format: functional, cell-based
[2] = Cytotoxicity against human Astrocyte cells assessed as cell growth inhibition; format: toxicity, cell-based
SF-188 = experiment: Antiproliferative activity against human SF-188 cells assessed as cell growth inhibition; format: functional, cell-based
A549 = experiment: Antiproliferative activity against human A549 cells assessed as cell growth inhibition measured after 72 hrs by SRB assay; format: functional, cell-based; conditions: A549, 72 h
HCT-116 [3] = experiment: Antiproliferative activity against human HCT-116 cells assessed as cell growth inhibition measured after 72 hrs by SRB assay; format: functional, cell-based; conditions: HCT-116, 72 h
NCI-H1975 = experiment: Antitumor activity against human NCI-H1975 cells xenografted in athymic nude mouse assessed as tumor volume inhibition at 60 mg/kg per day, po; format: functional
MDA-MB-436 = experiment: Antitumor activity against human MDA-MB-436 cells xenografted in athymic nude mouse assessed as tumor volume inhibition at 60 mg/kg per day, po; format: functional
HCT-116 [4] = experiment: Antitumor activity against human HCT-116 cells xenografted in athymic nude mouse assessed as tumor volume inhibition at 60 mg/kg per day, po; format: functional
MV4-11 = experiment: Antitumor activity against human MV4-11 cells xenografted in athymic nude mouse assessed as tumor volume inhibition at 60 mg/kg per day, po; format: functional
SK-OV-3 = experiment: Antitumor activity against human SK-OV-3 cells xenografted in athymic nude mouse assessed as tumor volume inhibition at 60 mg/kg per day, po; format: functional

SMILES: CN(CCOC(=O)ONC(=O)CCCCCCC(=O)Nc1ccccc1)C(=O)OCc1ccc(O[C@@H]2O[C@H](C(=O)O)[C@@H](O)[C@H](O)[C@H]2O)c([N+](=O)[O-])c1
- solubility [1]: 40 mg/mL (≈ 54.3 mM)

SMILES: CCCC(=O)OCOC(=O)CCCc1ccccc1
- IC50 (U-251): 154000 nM
- IC50 [2]: 291000 nM
- IC50 (SF-188): 76000 nM

SMILES: CN(CCOC(=O)ONC(=O)/C=C/c1cccc(S(=O)(=O)Nc2ccccc2)c1)C(=O)OCc1ccc(O[C@@H]2O[C@H](C(=O)O)[C@@H](O)[C@H](O)[C@H]2O)c([N+](=O)[O-])c1
- solubility [1]: 80 mg/mL (≈ 101 mM)

SMILES: CCc1c2c(nc3ccc(O)cc13)-c1cc3c(c(=O)n1C2)COC(=O)[C@@]3(CC)OC(=O)CNC(=O)ONC(=O)CCCCCCC(=O)Nc1ccccc1
- IC50 (A549): 87.3 nM
- IC50 (HCT-116 [3]): 113 nM

SMILES: CCc1c2c(nc3ccc(O)cc13)-c1cc3c(c(=O)n1C2)COC(=O)[C@]3(O)CC [7-ETHYL-10-HYDROXYCAMPTOTHECIN]
- IC50 (A549): 45.4 nM
- IC50 (HCT-116 [3]): 55.1 nM

SMILES: CN(CCOC(=O)ONC(=O)/C=C/c1cccc(S(=O)(=O)Nc2ccccc2)c1)C(=O)OCc1ccc(O[C@@H]2O[C@H](C(=O)O)[C@@H](O)[C@H](O)[C@H]2O)c(N)c1
- solubility [1]: 100 mg/mL (≈ 131 mM)

SMILES: CC(=O)SCCCCC[C@H](NC(=O)[C@H]1CCC(=O)N1)C(=O)Nc1ccccc1
- inhibition in vivo at 60 mg/kg (NCI-H1975): 65%
- inhibition in vivo at 60 mg/kg (MDA-MB-436): 35%
- inhibition in vivo at 60 mg/kg (HCT-116 [4]): 77%
- inhibition in vivo at 60 mg/kg (MV4-11): 70%
- inhibition in vivo at 60 mg/kg (SK-OV-3): 59%

SMILES: CN(CCOC(=O)ONC(=O)CCCCCCC(=O)Nc1ccccc1)C(=O)OCc1ccc(O[C@@H]2O[C@H](C(=O)O)[C@@H](O)[C@H](O)[C@H]2O)c(N)c1
- solubility [1]: 55 mg/mL (≈ 77.8 mM)
